Results taken from patent US20150087619A1, “METHOD OF MITIGATING VIRUS ASSOCIATED END-ORGAN DAMAGE” (CHIMERIX, INC., priority 2012, published 2015).
Entries after “also recorded” stand apart in the source; their conditions may differ.

Tests used:
AdV = assay: In vitro antiviral activity in cell culture; assay type: cell-based
HSV = assay: HDP-CDV given to patients with viral infections, virology data; settings: patient 2 mo, 4.63 kg, neonatal HSV encephalitis; 4 mg/kg BIW; to below the limit of detection
BKV [1] = assay: Study HDP-CDV-201: serum creatinine as marker of renal function; settings: for Creatinine level and renal function vs placebo: BKU+ at baseline (post-HSCT engraft)
CMV [2] = assay: In vitro antiviral activity in cell culture; assay type: cell-based; settings: Human betaherpesvirus 5
VZV = assay: Virus spread in VZV-infected cultures; assay type: cell-based; settings: 1 day of 20 μg/mL in the medium, given on Day −1, 0, 2, or 3
CMV [3] = assay: HDP-CDV given to patients with viral infections, virology data; settings: patient
VZV-BAC-Luc strain = assay type: in vivo, mouse
BKV [4] = assay: HDP-CDV given to patients with viral infections, virology data; settings: patient
BKV [5] = assay: Study HDP-CDV-201: BK viruria and viremia in post-HCT subjects; assay type: in vivo, human
Procedure: A HDP-CDV-201, a 9-11 week randomized, placebo-controlled, double-blind, dose-escalation clinical study (40 mg weekly [QW], 100 mg QW, 200 mg QW, 200 mg twice-weekly [BIW], and 100 mg BIW) of HDP-CDV for the prevention of BKV infection post-HCT was performed. Treatment was initiated at the time of engraftment and continued until Week 13 post-HCT.
A multicenter, randomized, double-blind, placebo-controlled, dose-escalation study of safety, tolerability, and ability of HDP-CDV to prevent or control AdV, BKV, and EBV infection and associated disorders was conducted. During enrollment of patients in the study, urine samples of candidate patients were routinely screened for BKV. Plasma was collected from patients who tested positive for BKV viruria in urine, and AdV, EBV and BKV level in the plasma was evaluated.
Subjects were tabulated according to treatment group (pooled HDP-CDV versus placebo) and BKV status (viruria positive or negative any time during treatment). Pairwise comparisons were performed using a Fisher's exact test. Data were pooled for HDP-CDV versus placebo groups due to the limited sample size. […] Data from the largest study cohort (HDP-CDV 100 mg BIW) are presented separately in some of the analyses as this dose as been selected for further development of HDP-CDV in Phase 3 trials.

EBV = assay: HDP-CDV given to patients with viral infections, virology data; settings: 4 mg/kg BIW
JCV = assay: as above; settings: patient, JCV associated PML; 2 mg/kg BIW; initial 398 (CSF) and 557 (urine)
[6] = Pharmacokinetic analysis in pediatric and geriatric patients; assay type: in vivo, human
Procedure: This study population included five children. Pediatric patients received approximate doses of 1, 2, 3, or 4 mg/kg given once or twice weekly. […] Variability in PK parameters for this age group was high with respect to AUC, Cmax, and CL/F. In general, pediatric patients had lower plasma concentrations of HDP-CDV and CDV than adult healthy volunteers or patients on the same dose and schedule.
The study population also included 3 elderly adults. Geriatric patients received approximate doses of 1, 2, or 3 mg/kg given either once or twice weekly. Similar to pediatric patients, the medical condition of geriatric patients varied widely. Variability in PK parameters for this age group was high with respect to AUC, Cmax, and CL/F. In general, geriatric patients had higher plasma concentrations of HDP-CDV and CDV and lower CL/F than those observed in younger healthy volunteers or patients.
High CDV CL/fm values were also observed in children.

CCCCCCCCCCCCCCCCOCCCOP(=O)(O)COC(CO)Cn1ccc(N)nc1=O (stereo not shown) [HDP-CDV]
EC50 (AdV): 20 nM
HSV in the CSF decrease (HSV): > 1.8 log10 copies/mL to below the limit of
rates of creatinine elevations or creatinine or heme+ urine, HDP-CDV vs placebo (BKV [1]; 105 subjects consistently BK negative): numerically similar
creatinine elevations >120 microM and =>25% increase over baseline (BKV [1]; BK negative throughout (7/78), placebo 7.4%): 9.0%
creatinine elevations (>120 last and >25% increase from baseline) OR 1+ heme, confirmed, new onset (BKV [1]; BK negative throughout (11/78), placebo 11.1%): 14.1%
end of treatment creatinine elevations >120 microM and =>25% over baseline (BKV [1]; BK positive during treatment (7/93), placebo 18.75%): 7.5%
creatinine elevations (>120 last and >25% increase from baseline) OR 1+ heme, confirmed, new onset (BKV [1]; BK positive during treatment (11/93), placebo 37.5%): 11.8%
difference in frequency between treatments, creatinine elevations or new onset heme+ urinalyses (BKV [1]; BK-positive subjects): 3.2 fold
Creatinine level and renal function vs placebo (BKV [1]; FIG. 2): prevented increase in Creatinine level and worsening of renal function
Creatinine level and renal function vs placebo (BKV [1]; FIG. 2, listed as HDP-cidofovir): reduces renal impairment
developed renal impairment (BKV [1]; BKU+ subjects (10/77), placebo 29%): 13%
end organ damage vs placebo (BKV [1]; BKU− at baseline, FIG. 2): did not impact the end organ damage
renal impairment (BKV [1]; BKU− subjects (6/94), placebo 6%): 6%
efficacy of twice weekly dosing (BKV [1]; Study HDP-CDV-201 retrospective analysis): equally or more effective
reduction of the incidence of renal dysfunction (creatinine elevations) vs placebo (BKV [1]; subjects BK viruric during the treatment period): 2.5 fold
EC50 (CMV [2]): 1 nM
reduction of virus spread (VZV): 2-3 Log10
decrease in CMV viremia (CMV [3]; 61 kg, GCV res (UL97), 3 mg/kg BIW, first month of dosing): GCV res (UL97). There was a 1.9 log10
CMV viremia 4 days after the third dose (CMV [3]; 63.3 kg, refractory CMV, UL97 and UL54 mutations, 4 mg/kg BIW, from 9200 copies/mL): first day of dosing to 1000 copies/mL 4
CMV after dosing interruption (CMV [3]; 63.3 kg, refractory CMV, 4 mg/kg BIW): interrupted resulting in virologic rebound.
CMV suppression during therapy (CMV [3]; 69 kg, 2 mg/kg, 1 mg/kg second dose, then 2 mg/kg BIW, after discontinuation of ganciclovir): CMV suppression continued during HDP-
CMV viremia during therapy (CMV [3]; 72.8 kg, post lung transplant CMV, 3 mg/kg BIW): There was no change in CMV viremia
viral load (qPCR) (VZV-BAC-Luc strain; 1.25, 2.5, and 5.0 mg/kg, 8 doses once daily): dose dependent
efficacy in vivo (VZV-BAC-Luc strain; SCID-Hu mouse model of VZV replication): highly effective
response of BKV in urine (BKV [4]; 57.9 kg, 2 mg/kg BIW): CMV viremia but no sustained response of
BK viruria during administration (BKV [4]; 69 kg, BKV hemorrhagic cystitis, 2 mg/kg, 1 mg/kg second dose, then 2 mg/kg BIW): ganciclovir. BK viruria decreased during
BKV in urine (BKV [4]; 108 kg, 3 mg/kg first dose, 2 mg/kg BIW thereafter, by a similar amount (almost 2 log10)): rose
antiviral effect (BKV [5]; 40 mg QW dose): has not been shown to have antiviral activity; also recorded: no antiviral effect
BKV viral load and risk or incidence of end organ damage (BKV [5]; BKU+ patients, FIG. 3): effective in reducing BKV viral load and the risk or incidence of end organ damage
>10,000 confirmed, new onset (viremia) (BKV [5]; Cohort 4A 100 mg BIW): 0
Viruria >1.0E+10 but only at posttreatment week (BKV [5]; Cohort 4A 100 mg BIW (1/22)): (4.5%)
Viremia sustained, but no viremia at baseline (BKV [5]; Cohort 4A 100 mg BIW (3/22)): (13.6%)
Viremia >1000 copies/mL confirmed (BKV [5]; Cohort 4A 100 mg BIW (4/22)): (18.2%)
Viremia sustained (at least 2 consecutive values positive) (BKV [5]; Cohort 4A 100 mg BIW (5/22)): (22.7%)
Viremia at any time during treatment (BKV [5]; Cohort 4A 100 mg BIW (6/22)): (27.3%)
Viruria >1.0E+10 at any time during treatment (BKV [5]; Cohort 4A 100 mg BIW, BKV positive urine at baseline (4/22)): (18.2%)
BK viremia (BKV [5]; Cohort 4a (100 mg BIW), 5/22): 23%
Viruria >1.0E+10 but only at posttreatment week (BKV [5]; Pooled HDP-CDV cohorts (4/77)): (5.2%)
>10,000 confirmed, new onset (viremia) (BKV [5]; Pooled HDP-CDV cohorts (5/77)): (6.5%)
Viremia sustained, but no viremia at baseline (BKV [5]; Pooled HDP-CDV cohorts (23/77)): (29.9%)
Viremia >1000 copies/mL confirmed (BKV [5]; Pooled HDP-CDV cohorts (31/77)): (26%)
Viremia sustained (at least 2 consecutive values positive) (BKV [5]; Pooled HDP-CDV cohorts (32/77)): (41.6%)
Viremia at any time during treatment (BKV [5]; Pooled HDP-CDV cohorts (40/77)): (47%)
Viruria >1.0E+10 at any time during treatment (BKV [5]; Pooled HDP-CDV cohorts, BKV positive urine at baseline (26/77)): (33.8%)
subjects who developed viremia >10,000 copies/mL (BKV [5]; cohort 1 (40 mg QW)): 1
BK viremia (BKV [5]; cohort 1 (40 mg QW), 5/8): 62%
subjects who developed viremia >10,000 copies/mL (BKV [5]; cohort 2 (100 mg QW)): 1
subjects who developed viremia >10,000 copies/mL (BKV [5]; cohort 3 (200 mg QW)): 3
subjects who developed viremia >10,000 copies/mL (BKV [5]; cohort 4 (200 mg BIW)): 3
subjects who developed viremia >10,000 copies/mL (BKV [5]; cohort 4a (100 mg BIW)): 0
subjects with high levels of BK viruria (BKV [5]; negative for BK viruria at baseline, Cohort 1 (40 mg QW)): 0 subject
subjects with high levels of BK viruria (BKV [5]; negative for BK viruria at baseline, Cohort 2 (100 mg QW)): 1 subject
subjects with high levels of BK viruria (BKV [5]; negative for BK viruria at baseline, Cohort 3 (200 mg QW)): 2 subject
subjects with high levels of BK viruria (BKV [5]; negative for BK viruria at baseline, Cohort 4 (200 mg BIW)): 0 subject
subjects with high levels of BK viruria (BKV [5]; negative for BK viruria at baseline, Cohort 4a (100 mg BIW)): 0 subject
subjects with viremia (BKV [5]; negative for BK viruria at baseline, pooled HDP-CDV): one
viral load (maximum BKV viruria) (BKV [5]; patients (67%) who did not develop end organ disease, FIG. 3): 2.0×10^8
viral load (maximum BKV viruria) (BKV [5]; patients who developed end organ disease after treatment (33%), FIG. 3): 3.2×10^8
viral load compared to patients who received placebo (BKV [5]; patients who developed end organ disease after treatment, FIG. 3): significantly lower viral load
sustained BK viruria (at least 4 weeks with BK positive urine measurements) (BKV [5]; subjects negative for BK viruria at baseline (9/73), placebo 21%): 12%
confirmed new onset BK viruria during treatment (BKV [5]; subjects negative for BK viruria at baseline (10/73), placebo 25%): 14%
measurable BK viruria on at least one occasion (BKV [5]; subjects negative for BK viruria at baseline (16/73), placebo 29%): 22%
decrease in EBV levels in blood (EBV; patient 6 months, 6 kg, EBV associated PTLD, four days after starting): There was approximately a 5-fold decrease
blood EBV viral load after one month of therapy (EBV; patient 22 months, 13.8 kg, from >50,000,000 copies/mL): copies/mL to 100,000 copies/mL over one
replication of EBV as measured by plasma PCR (EBV; patient, 27 kg, EBV-associated PTLD): There is no evidence of on-going
JCV viral load in the CSF and urine during treatment (JCV): viral load became undetectable (<300 copies/mL
CDV CL/fm values ([6]; children): High
CL/F vs younger healthy volunteers or patients ([6]; geriatric patients aged 66-68 years): lower
plasma concentrations of HDP-CDV and CDV vs younger healthy volunteers or patients ([6]; geriatric patients aged 66-68 years, approx. 1-3 mg/kg once or twice weekly): higher
CL/F values vs older subjects ([6]; patients <20 years of age): higher
